Molecules are shown by their SMILES. Numbered stars: 1 amine (or outer) side, 2 acyl side, 3 side chain; on linkers, the order of the positions; unused ones are H or OH. Square brackets hold non-standard residues; d marks the D form. Side chains are listed from the residue outwards. Peptide text beside a SMILES is read from it. * marks the point of attachment. C20 diacid = O=C(O)CCCCCCCCCCCCCCCCCCC(=O)*; γGlu = O=C(O)[C@H](CCC(=O)[*:2])N[*:1]; AEEA = NCCOCCOCC(=O)O; Aib = CC(C)(N)C(=O)O

Results on seven compounds are retold here after US20260201008A1, “SECRETIN-DERIVED GLP1R SELECTIVE AGONISTS” (GUBRA A/S, priority 2023, published 2026).

The nature of data set [1]: Turbidity of crude library peptides (absorbance at 600 nm). It is filed as physicochemical. As to conditions: Physical stability of peptides. The method in brief:
(§1)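 Turbidity is the absorbance at 600 nm, taken before heating. Fibril signal is the mean ThT emission at 480 nm (450 nm excitation), read every 10 min over 72 h at 40° C with 700 rpm shaking between reads. Peptides at 267 μM, pH 4.0 acetate or pH 7.0 phosphate buffer (50 mM), 4 μM ThT final.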

In the next data set the target is GLP1R (Homo sapiens, UniProt P43220). Description: hGLP1R potency, cAMP accumulation in CHO-K1 cells stably overexpressing hGLP1R. The format is cell-based. More on the design: host or cells: CHO-K1. As to conditions: for EC50: cAMP accumulation, CHO-K1 cells overexpressing hGLP1R, read-out: hGLP1R pEC50 (converted); for SCTR EC50/GLP1R EC50 ratio: selectivity for hGLP1R over hSCTR, cAMP accumulation in CHO-K1 cells. The method in brief: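 2000 cells/well, DPBS + 0.05% casein + 0.5 mM IBMX; 30 min RT stimulation; HTRF cAMP detection after 1 h. Purified: 3-fold ×11, n=2; crude: 10-fold ×5, n=1. EC50 by variable-slope fit.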
GLP1R, sequence (P43220 24-463): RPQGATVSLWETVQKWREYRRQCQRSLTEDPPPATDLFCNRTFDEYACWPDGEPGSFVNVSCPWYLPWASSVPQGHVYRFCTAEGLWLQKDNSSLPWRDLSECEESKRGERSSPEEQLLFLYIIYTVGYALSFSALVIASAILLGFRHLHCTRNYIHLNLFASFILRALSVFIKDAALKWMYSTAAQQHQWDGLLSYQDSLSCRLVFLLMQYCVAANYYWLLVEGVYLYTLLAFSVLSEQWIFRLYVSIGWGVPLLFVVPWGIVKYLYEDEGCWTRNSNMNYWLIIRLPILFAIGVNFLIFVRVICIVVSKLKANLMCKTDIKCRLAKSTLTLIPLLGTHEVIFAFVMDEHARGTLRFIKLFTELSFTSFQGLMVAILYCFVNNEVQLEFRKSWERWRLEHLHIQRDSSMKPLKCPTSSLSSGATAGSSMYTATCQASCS
In general terms: Changes in cAMP serve as a functional read-out for many G protein-coupled receptors.

Another data set has as its target SCTR (Homo sapiens, UniProt P47872). Description: hSCTR potency, cAMP accumulation in CHO-K1 cells stably overexpressing hSCTR. The format is cell-based. More on the design: alternatively Euroscreen ES-712-AF; FAST-0161L; host or cells: CHO-K1. As to conditions: cAMP accumulation, CHO-K1 cells overexpressing hSCTR; read-out: hSCTR pEC50 (converted). The method in brief: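 Thawed CHO-K1 cells carrying stable hSCTR are plated into casein/IBMX buffer (0.05%, 0.5 mM), dosed immediately for 30 min at room temperature, then cAMP is detected by TR-FRET. Purified peptides run as 11 three-fold dilutions in duplicate, and curves are fitted with variable slope.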

Data set [2] is described as follows: Fibril formation of crude library peptides (Thioflavin T). The format is physicochemical. More on the design: key: average ThT fluorescence emission at 480 nm (ex 450 nm), raw units. The conditions noted are these: Physical stability of peptides. In outline:
as §1

SCTR, sequence (P47872 23-440): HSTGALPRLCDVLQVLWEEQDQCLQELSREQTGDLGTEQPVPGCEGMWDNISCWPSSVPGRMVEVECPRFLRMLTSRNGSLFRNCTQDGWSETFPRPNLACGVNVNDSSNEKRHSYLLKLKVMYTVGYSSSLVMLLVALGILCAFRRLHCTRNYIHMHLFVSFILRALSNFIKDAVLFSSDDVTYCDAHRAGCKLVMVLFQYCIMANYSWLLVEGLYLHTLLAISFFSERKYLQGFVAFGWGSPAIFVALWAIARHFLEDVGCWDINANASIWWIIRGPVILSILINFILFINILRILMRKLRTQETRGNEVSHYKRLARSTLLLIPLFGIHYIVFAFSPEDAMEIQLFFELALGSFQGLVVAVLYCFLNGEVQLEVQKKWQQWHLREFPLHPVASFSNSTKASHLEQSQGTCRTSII

As for `CC(C)C[C@H](NC(=O)[C@H](Cc1ccccc1)NC(=O)[C@H](CCCNC(=N)N)NC(=O)[C@H](CCC(N)=O)NC(=O)[C@H](C)NC(=O)[C@H](C)NC(=O)[C@H](C)NC(=O)[C@H](Cc1ccccc1)NC(=O)[C@H](CCC(=O)O)NC(=O)[C@H](CCCCNC(=O)COCCOCCNC(=O)COCCOCCNC(=O)CC[C@H](NC(=O)CCCCCCCCCCCCCCCCCCC(=O)O)C(=O)O)NC(=O)[C@H](CC(C)C)NC(=O)[C@H](Cc1ccccc1)NC(=O)[C@H](CO)NC(=O)[C@@H](NC(=O)[C@H](CC(=O)O)NC(=O)[C@H](CO)NC(=O)[C@@H](NC(=O)[C@H](Cc1ccccc1)NC(=O)[C@@H](NC(=O)CNC(=O)[C@H](CCC(=O)O)NC(=O)C(C)(C)NC(=O)[C@@H](N)Cc1c[nH]cn1)[C@@H](C)O)[C@@H](C)O)C(C)C)C(=O)N[C@@H](CCC(=O)O)C(=O)N[C@@H](Cc1c[nH]cn1)C(=O)N[C@@H](CC(C)C)C(=O)N[C@H](C(N)=O)C(C)C` [compound 84] (H-H[Aib]EGTFTSDVSFLK([AEEA-AEEA-γGlu-C20 diacid])EFAAAQRFLEHLV-NH2), in data set [1], the “Turbidity (pH 7)” value came to 0.08. At GLP1R, the EC50 was 0.0794 nM and the “SCTR EC50/GLP1R EC50 ratio” value amounted to 51215. Also, the EC50 at SCTR was 3980 nM. Moreover, in data set [2], the Fibril formation turned out to be 47022.

Consider `CC(C)C[C@H](NC(=O)[C@H](Cc1ccccc1)NC(=O)[C@H](CCCNC(=N)N)NC(=O)[C@H](CCC(N)=O)NC(=O)C(C)(C)NC(=O)[C@H](C)NC(=O)[C@H](C)NC(=O)[C@@H](NC(=O)[C@H](CCC(=O)O)NC(=O)[C@H](CCCCNC(=O)COCCOCCNC(=O)COCCOCCNC(=O)CC[C@H](NC(=O)CCCCCCCCCCCCCCCCCCC(=O)O)C(=O)O)NC(=O)[C@H](CC(C)C)NC(=O)[C@H](CCCNC(=N)N)NC(=O)[C@H](CO)NC(=O)[C@@H](NC(=O)[C@H](CC(=O)O)NC(=O)[C@H](CO)NC(=O)[C@@H](NC(=O)[C@H](Cc1ccccc1)NC(=O)[C@@H](NC(=O)CNC(=O)[C@H](CCC(=O)O)NC(=O)C(C)(C)NC(=O)[C@@H](N)Cc1c[nH]cn1)[C@@H](C)O)[C@@H](C)O)C(C)C)[C@@H](C)O)C(=O)N[C@@H](CCC(=O)O)C(=O)N[C@@H](Cc1c[nH]cn1)C(=O)N[C@@H](CC(C)C)C(=O)N[C@H](C(N)=O)C(C)C` [compound 85] (H-H[Aib]EGTFTSDVSRLK([AEEA-AEEA-γGlu-C20 diacid])ETAA[Aib]QRFLEHLV-NH2), for which the “Turbidity (pH 7)” value in data set [1] stood at 0.09. At GLP1R, the EC50 is 0.126 nM and the “SCTR EC50/GLP1R EC50 ratio” value amounted to 12682. At SCTR, the EC50 is 1580 nM. The compound further had a Fibril formation in data set [2] of 19223.

Take `CC(C)C[C@H](NC(=O)[C@H](CCC(=O)O)NC(=O)[C@H](CCCCNC(=O)COCCOCCNC(=O)COCCOCCNC(=O)CC[C@H](NC(=O)CCCCCCCCCCCCCCCCCCC(=O)O)C(=O)O)NC(=O)[C@H](CC(C)C)NC(=O)[C@H](Cc1ccc(O)cc1)NC(=O)[C@H](CO)NC(=O)[C@@H](NC(=O)[C@H](CC(=O)O)NC(=O)[C@H](CO)NC(=O)[C@@H](NC(=O)[C@H](Cc1ccccc1)NC(=O)[C@@H](NC(=O)CNC(=O)[C@H](CCC(=O)O)NC(=O)C(C)(C)NC(=O)[C@@H](N)Cc1c[nH]cn1)[C@@H](C)O)[C@@H](C)O)C(C)C)C(=O)N[C@@H](C)C(=O)N[C@@H](C)C(=O)N[C@@H](C)C(=O)N[C@@H](CCC(N)=O)C(=O)N[C@@H](CCCNC(=N)N)C(=O)N[C@@H](Cc1ccccc1)C(=O)N[C@@H](CC(C)C)C(=O)N[C@@H](CCC(=O)O)C(=O)N[C@@H](Cc1c[nH]cn1)C(=O)N[C@@H](CC(C)C)C(=O)N[C@H](C(N)=O)C(C)C` [compound 86] (H-H[Aib]EGTFTSDVSYLK([AEEA-AEEA-γGlu-C20 diacid])ELAAAQRFLEHLV-NH2): the “Turbidity (pH 7)” value in data set [1] is given as 0.08. Further, at GLP1R, the EC50 is 0.2 nM and the “SCTR EC50/GLP1R EC50 ratio” value is listed as 19815. Besides, on SCTR, the EC50 is 3980 nM. This compound registered a Fibril formation in data set [2] of 9344.

In the case of `CC(C)C[C@H](NC(=O)[C@H](Cc1ccccc1)NC(=O)[C@H](CCCNC(=N)N)NC(=O)[C@H](CCC(N)=O)NC(=O)[C@H](CO)NC(=O)[C@H](C)NC(=O)[C@H](C)NC(=O)[C@H](CCC(=O)O)NC(=O)[C@H](CCC(=O)O)NC(=O)[C@H](CCCCNC(=O)COCCOCCNC(=O)COCCOCCNC(=O)CC[C@H](NC(=O)CCCCCCCCCCCCCCCCCCC(=O)O)C(=O)O)NC(=O)[C@H](CC(C)C)NC(=O)[C@H](CCC(=O)O)NC(=O)[C@H](CO)NC(=O)[C@@H](NC(=O)[C@H](CC(=O)O)NC(=O)[C@H](CO)NC(=O)[C@@H](NC(=O)[C@H](Cc1ccccc1)NC(=O)[C@@H](NC(=O)CNC(=O)[C@H](CCC(=O)O)NC(=O)C(C)(C)NC(=O)[C@@H](N)Cc1c[nH]cn1)[C@@H](C)O)[C@@H](C)O)C(C)C)C(=O)N[C@@H](CCC(=O)O)C(=O)N[C@@H](Cc1c[nH]cn1)C(=O)N[C@@H](CC(C)C)C(=O)N[C@H](C(N)=O)C(C)C` [compound 87] (H-H[Aib]EGTFTSDVSELK([AEEA-AEEA-γGlu-C20 diacid])EEAASQRFLEHLV-NH2), the “Turbidity (pH 7)” value in data set [1] was 0.08. In addition, on GLP1R, the EC50 is 0.0398 nM and the “SCTR EC50/GLP1R EC50 ratio” value stood at 39811. The EC50 at SCTR is 1580 nM. Also, in data set [2], the Fibril formation turned out to be 7811.

Take `CC(C)C[C@H](NC(=O)[C@H](Cc1ccccc1)NC(=O)[C@H](CCCNC(=N)N)NC(=O)[C@H](CCC(N)=O)NC(=O)[C@H](CCC(N)=O)NC(=O)[C@H](C)NC(=O)[C@H](C)NC(=O)C(C)(C)NC(=O)[C@H](CCC(=O)O)NC(=O)[C@H](CCCCNC(=O)COCCOCCNC(=O)COCCOCCNC(=O)CC[C@H](NC(=O)CCCCCCCCCCCCCCCCCCC(=O)O)C(=O)O)NC(=O)[C@H](CC(C)C)NC(=O)[C@@H](NC(=O)[C@H](CO)NC(=O)[C@@H](NC(=O)[C@H](CC(=O)O)NC(=O)[C@H](CO)NC(=O)[C@@H](NC(=O)[C@H](Cc1ccccc1)NC(=O)[C@@H](NC(=O)CNC(=O)[C@H](CCC(=O)O)NC(=O)C(C)(C)NC(=O)[C@@H](N)Cc1c[nH]cn1)[C@@H](C)O)[C@@H](C)O)C(C)C)[C@@H](C)O)C(=O)N[C@@H](CCC(=O)O)C(=O)N[C@@H](Cc1c[nH]cn1)C(=O)N[C@@H](CC(C)C)C(=O)N[C@H](C(N)=O)C(C)C` [compound 88] (H-H[Aib]EGTFTSDVSTLK([AEEA-AEEA-γGlu-C20 diacid])E[Aib]AAQQRFLEHLV-NH2): the “Turbidity (pH 7)” value in data set [1] is recorded as 0.08. Also, the EC50 on GLP1R was 0.00398 nM; at SCTR, 158 nM. Besides, the “SCTR EC50/GLP1R EC50 ratio” value at GLP1R stood at 42658. For the same compound, in data set [2], the Fibril formation is recorded as 10893.

In the case of `CC(C)C[C@H](NC(=O)[C@H](Cc1ccccc1)NC(=O)[C@H](CCCNC(=N)N)NC(=O)[C@H](CCC(N)=O)NC(=O)[C@H](CCC(=O)O)NC(=O)[C@H](C)NC(=O)[C@H](C)NC(=O)[C@H](Cc1ccccc1)NC(=O)[C@H](CCC(=O)O)NC(=O)[C@H](CCCCNC(=O)COCCOCCNC(=O)COCCOCCNC(=O)CC[C@H](NC(=O)CCCCCCCCCCCCCCCCCCC(=O)O)C(=O)O)NC(=O)[C@H](CC(C)C)NC(=O)[C@@H](NC(=O)[C@H](CO)NC(=O)[C@@H](NC(=O)[C@H](CC(=O)O)NC(=O)[C@H](CO)NC(=O)[C@@H](NC(=O)[C@H](Cc1ccccc1)NC(=O)[C@@H](NC(=O)CNC(=O)[C@H](CCC(=O)O)NC(=O)C(C)(C)NC(=O)[C@@H](N)Cc1c[nH]cn1)[C@@H](C)O)[C@@H](C)O)C(C)C)[C@@H](C)O)C(=O)N[C@@H](CCC(=O)O)C(=O)N[C@@H](Cc1c[nH]cn1)C(=O)N[C@@H](CC(C)C)C(=O)N[C@H](C(N)=O)C(C)C` [compound 89] (H-H[Aib]EGTFTSDVSTLK([AEEA-AEEA-γGlu-C20 diacid])EFAAEQRFLEHLV-NH2), the “Turbidity (pH 7)” value in data set [1] worked out at 0.08. For the same compound, at GLP1R, the EC50 is 0.02 nM and the “SCTR EC50/GLP1R EC50 ratio” value amounted to 81527. For the same compound, at SCTR, the EC50 was 2000 nM. This compound also displayed a Fibril formation in data set [2] of 14469.

Consider `CC(C)C[C@H](NC(=O)[C@H](Cc1ccccc1)NC(=O)[C@H](CCCNC(=N)N)NC(=O)[C@H](CCC(N)=O)NC(=O)[C@H](CCC(N)=O)NC(=O)[C@H](C)NC(=O)[C@H](C)NC(=O)[C@H](CCC(=O)O)NC(=O)[C@H](CCC(=O)O)NC(=O)[C@H](CCCCNC(=O)COCCOCCNC(=O)COCCOCCNC(=O)CC[C@H](NC(=O)CCCCCCCCCCCCCCCCCCC(=O)O)C(=O)O)NC(=O)[C@H](CC(C)C)NC(=O)[C@@H](NC(=O)[C@H](CO)NC(=O)[C@@H](NC(=O)[C@H](CC(=O)O)NC(=O)[C@H](CO)NC(=O)[C@@H](NC(=O)[C@H](Cc1ccccc1)NC(=O)[C@@H](NC(=O)CNC(=O)[C@H](CCC(=O)O)NC(=O)C(C)(C)NC(=O)[C@@H](N)Cc1c[nH]cn1)[C@@H](C)O)[C@@H](C)O)C(C)C)C(C)C)C(=O)N[C@@H](CCC(=O)O)C(=O)N[C@@H](Cc1c[nH]cn1)C(=O)N[C@@H](CC(C)C)C(=O)N[C@H](C(N)=O)C(C)C` [compound 90] (H-H[Aib]EGTFTSDVSVLK([AEEA-AEEA-γGlu-C20 diacid])EEAAQQRFLEHLV-NH2), for which the “Turbidity (pH 7)” value in data set [1] was 0.09. Also, on GLP1R, the EC50 is 0.0316 nM and the “SCTR EC50/GLP1R EC50 ratio” value is 51322. Moreover, the EC50 on SCTR was 1580 nM. Besides, the Fibril formation in data set [2] is given as 5668.
